Assay results taken from patent US20150132746A1, “SAMPLING MEDIUM” (UNIVERSITY OF OSLO, priority 2012, published 2015).
Counter-ions that a name gives are not always drawn. Like-named read-outs stand apart in the source and are kept apart here.

Tests used:
[1] = Long term stability of model analytes in dried oral fluid stored 30 days on alginate or chitosan foam; format: physicochemical, human; settings: n = 3
Text: The results are shown in Tables 3 and 4 for alginate and chitosan foam, respectively. No sample loss is observed after 30 days of storage. The stability of the model analytes by storing oral fluid on alginate and chitosan foam was considered satisfactory.

[2] = whole blood 70 ng/ml on alginate foam
[3] = cited from earlier work
[4] = oral fluid on alginate foam, theoretical 100 ng/ml, stored at 4 C
[5] = oral fluid on alginate foam, theoretical 100 ng/ml, stored at 37 C
[6] = oral fluid on alginate foam, theoretical 100 ng/ml, stored at room temperature
[7] = oral fluid on alginate foam, theoretical 100 ng/ml, stored at −18 C
[8] = oral fluid on alginate foam, theoretical 500 ng/ml, stored at 4 C
[9] = oral fluid on alginate foam, theoretical 500 ng/ml, stored at 37 C
[10] = oral fluid on alginate foam, theoretical 500 ng/ml, stored at room temperature
[11] = oral fluid on alginate foam, theoretical 500 ng/ml, stored at −18 C
[12] = oral fluid on chitosan foam, theoretical 100 ng/ml, stored at 4 C
[13] = oral fluid on chitosan foam, theoretical 100 ng/ml, stored at 37 C
[14] = oral fluid on chitosan foam, theoretical 100 ng/ml, stored at room temperature
[15] = oral fluid on chitosan foam, theoretical 100 ng/ml, stored at −18 C
[16] = oral fluid on chitosan foam, theoretical 500 ng/ml, stored at 4 C
[17] = oral fluid on chitosan foam, theoretical 500 ng/ml, stored at 37 C
[18] = oral fluid on chitosan foam, theoretical 500 ng/ml, stored at room temperature
[19] = oral fluid on chitosan foam, theoretical 500 ng/ml, stored at −18 C

| Structure (SMILES) | Measured concentration at day 30 [1, 4] [ng/mL] | Measured concentration at day 30 [1, 5] [ng/mL] | Measured concentration at day 30 [1, 6] [ng/mL] | Measured concentration at day 30 [1, 7] [ng/mL] | Measured concentration at day 30 [1, 8] [ng/mL] | Measured concentration at day 30 [1, 9] [ng/mL] | Measured concentration at day 30 [1, 10] [ng/mL] | Measured concentration at day 30 [1, 11] [ng/mL] | Measured concentration at day 30 [1, 12] [ng/mL] | Measured concentration at day 30 [1, 13] [ng/mL] | Measured concentration at day 30 [1, 14] [ng/mL] | Measured concentration at day 30 [1, 15] [ng/mL] | Measured concentration at day 30 [1, 16] [ng/mL] | Measured concentration at day 30 [1, 17] [ng/mL] | Measured concentration at day 30 [1, 18] [ng/mL] | Measured concentration at day 30 [1, 19] [ng/mL] | Nominal concentration at day 50 ([2]; stored at 4° C.) [ng/mL] | Nominal concentration at day 50 ([2]; stored at 37° C.) [ng/mL] | Nominal concentration at day 50 ([2]; stored at room temperature) [ng/mL] | Nominal concentration at day 50 ([2]; stored at −18° C.) [ng/mL] | also measured |
| --- | --- | --- | --- | --- | --- | --- | --- | --- | --- | --- | --- | --- | --- | --- | --- | --- | --- | --- | --- | --- | --- |
| CO[C@@]12CC[C@@]3(C[C@@H]1[C@](C)(O)C(C)(C)C)[C@H]1Cc4ccc(O)c5c4[C@@]3(CCN1CC1CC1)[C@H]2O5.Cl [Buprenorphine, buprenorphine hydrochloride] | 101 | 115 | 97 | 96 | 790 | 656 | 642 | 656 | 105 | 100 | 101 | 101 | 569 | 595 | 595 | 611 | – | – | – | – | – |
| CN(C)CCCC1(c2ccc(F)cc2)OCc2cc(C#N)ccc21 (stereo not drawn) [Citalopram, citalopram hydrobromide] | – | – | – | – | – | – | – | – | – | – | – | – | – | – | – | – | 64 | 59 | 64 | 72 | – |
| CCC(=O)C(CC(C)N(C)C)(c1ccccc1)c1ccccc1 (stereo not drawn) [Methadone, Methadone hydrochloride] | 113 | 117 | 103 | 106 | 636 | – | 582 | 602 | 115 | 108 | 113 | 105 | 564 | 545 | 582 | 599 | 63 | 54 | 61 | 79 | – |
| CN[C@@H](C)Cc1ccccc1 [Methamphetamine] | 107 | 42 | 72 | 103 | 645 | 319 | 466 | 687 | 126 | 80 | 98 | 117 | 744 | 467 | 601 | 732 | – | – | – | – | – |
| COc1ccc(CC(C)N)cc1 (stereo not drawn) [PMA, para-methoxyamphetamine] | 115 | 53 | 80 | 105 | 722 | 406 | 628 | 717 | 127 | 131 | 104 | 122 | 765 | 648 | 719 | 769 | – | – | – | – | – |
| CNC(C)Cc1ccc(OC)cc1 (stereo not drawn) [PMMA, para-methoxymethamphetamine] | 114 | 76 | 197 | 114 | 715 | 475 | 628 | 726 | 123 | 112 | 104 | 119 | 765 | 623 | 647 | 769 | – | – | – | – | – |
| CN[C@H]1CC[C@@H](c2ccc(Cl)c(Cl)c2)c2ccccc21 [Sertraline, sertraline hydrochloride] | – | – | – | – | – | – | – | – | – | – | – | – | – | – | – | – | 69 | 61 | 77 | 64 | – |
| N[C@H]1C(O)O[C@H](CO)[C@@H](O)[C@@H]1O (stereo partly drawn) [glucosamine] | – | – | – | – | – | – | – | – | – | – | – | – | – | – | – | – | – | – | – | – | pKa [3]: 6.3 |
| O=C[C@H](O)[C@H](O)[C@@H](O)[C@H](O)C(=O)O [guluronic, guluronic acid] | – | – | – | – | – | – | – | – | – | – | – | – | – | – | – | – | – | – | – | – | pKa [3]: 3.65 |
